Laboratory results reported in article PMC7037273, “Phytochemical Screening and Antiprotozoal Effects of the Methanolic Berberis Vulgaris and Acetonic Rhus Coriaria Extracts” (Molecules, 2020).
≈ marks a conversion by molar mass, not a printed value.

Legend:
HFF cells = assay type: cell-based; conditions: human, 24 h, 100 µM
Method: (§1) Cultures of Human foreskin fibroblast (HFF; HFF-1 ATCC® SCRC-1041™), Madin–Darby bovine kidney (MDBK; ECACC) and mouse embryonic fibroblast (NIH/3T3; ATCC® CRL-1658™) cell lines were retrieved from −80 °C stock and cultured continuously at 37 °C under atmosphere 5% CO2 in our laboratory. The NIH/3T3 and HFF cell lines were maintained in Dulbecco Modified Eagle’s Medium (DMEM; Gibco, Grand Island, NY, USA), while MDBK cell line grown in Minimum Essential Medium Eagle (MEM; Gibco). Each medium was treated with 1% glutamine, 10% fetal bovine serum and 0.5% penicillin/streptomycin (Gibco). Every 72 to 96 h, the medium was replaced, and once 80% confluence was reached, the cell collection was performed by sub-culture protocol. To confirm the absence of mycoplasma contamination, 4,6-diamidino-2-phenylindole dihydrochloride (Sigma-Aldrich) stain was used [9].
(§2) The cell viability test was conducted in a 96-well plate as described elsewhere [4, 9, 51, 52]. Briefly, an aliquot of (100 µL) cells was implanted at a concentration of 5 × 10^4 cells/mL in DMEM or MEM with fetal bovine serum and incubated overnight under atmosphere 5% CO2 at 37 °C for attachment. […] After a 24-h incubation, Cell Counting Kits-8 (CCK-8) (10 µL) was added per well followed by the incubation of the plate for another 3 hours and a microplate reader was used to measure the absorbance at 450 nm.

MDBK cells = test: cells; assay type: cell-based, bovine
Method: as §1, §2

NIH/3T3 cells = conditions: mouse, 24 h, 100 µM
Method: as §1, §2

B. microti = test: in vivo chemotherapeutic efficacy in B. microti-infected BALB/c mice
Method: MEBV and AERC were examined for their in vivo chemotherapeutic efficacy using B. microti-infected BALB/c mice according to a procedure described elsewhere. Briefly, twenty-five mice were placed in an environment free from pathogens with 22 °C temperature and adjusted humidity and under 12 h light and 12 h darkness and randomly distributed into five groups. All mice in groups 2 through 5 obtained 500 μL of 1 × 10^7 B. microti-iRBC by intraperitoneal (i.p.) injection. Group 1 served as a negative control and was neither infected nor treated. At 1% parasitemia, drug treatment of the mice […]. continuing for five days. Group 2 act as a positive control group and received 95% double-distilled water (DDW) and 5% DMSO. Groups 3 and 4 administered 150 mg/kg body weight (BW) of MEBV and AERC by the oral route, respectively. […] Furthermore, the hematological parameters, including HGB, RBCs, and HCT percentage were examined every four days using an automatic hematology analyzer (Celltac α MEK-6450, Nihon Kohden, Tokyo, Japan) to detect the effect of MEBV and AERC on the retrogression of anemia related to Babesia infection. […]

[1] = tested on: L. donovani promastigotes; parameters: method as in PMID 2360830; conditions: read-out: IC50 leishmanicidal effect; cited from earlier work
T. vaginalis = tested on: T. vaginalis; parameters: method as in PMID 29390009; conditions: cited from earlier work
[2] = tested on: Trypanosoma brucei brucei; parameters: method as in PMID 28654013; conditions: cited from earlier work

SMILES: O=C1C(O)=C([C@H]2CC[C@H](c3ccc(Cl)cc3)CC2)C(=O)c2ccccc21 [ATV, atovaquone]
- effect on cell viability (HFF cells): neither DMA nor ATV (final concentration 100 µM) restricted the viability
- effect on cell viability (MDBK cells; bovine, 24 h, 100 µM): neither DMA nor ATV (final concentration 100 µM) restricted the viability
- effect on cell viability (NIH/3T3 cells): neither DMA nor ATV (final concentration 100 µM) restricted the viability

SMILES: CC(C)/N=c1\cc2n(-c3ccc(Cl)cc3)c3ccccc3nc-2cc1Nc1ccc(Cl)cc1 [CLF, clofazimine]
- EC50 (MDBK cells; Bos taurus, MDBK cells, reference drug, read-out: EC50 MDBK cell viability): 34 ± 3.4 µM

SMILES: CC(=O)NCC(=O)O.CC(=O)NCC(=O)O.N=C(N)c1ccc(N=NNc2ccc(C(=N)N)cc2)cc1 [DMA, diminazene aceturate]
- peak parasitemia level (B. microti; 25 mg/kg BW, 5 days (day 4 to 8 p.i.), B. microti-infected BALB/c mice): 5%
- inhibition of B. microti multiplication (B. microti; 25 mg/kg, eighth day post-infection): 92%

SMILES: COc1ccc2cc3[n+](cc2c1OC)CCc1cc2c(cc1-3)OCO2 [berberine]
- IC50 [1]: 7.1 µM

SMILES: C=CCc1ccc(OC)c(OC)c1 [methyleugenol]
- IC50 growth of T. vaginalis (T. vaginalis): 100 µg/mL

SMILES: CC(C)=CCCC(C)c1ccc(C)cc1 (stereo not drawn) [α-curcumene]
- IC50 antitrypanosomal activity [2]: 13.38 µg/mL (≈ 66.1 µM)
- IC50 growth of T. vaginalis (T. vaginalis): 100 µg/mL

SMILES: C=C1CC/C=C(\C)CC[C@@H]2[C@@H]1CC2(C)C [β-caryophyllene]
- IC50 growth of T. vaginalis (T. vaginalis): 100 µg/mL
